US20130004579A1, “Use of Plant Lectins to Target Leukocytes” (priority 2011, published 2013)

B1: OVA alone: endotoxin-free ovalbumin antigen, 50 μg/mouse, without particles (protein, UniProt P01012 2-386, looked up)
Ovalbumin: GSIGAASMEFCFDVFKELKVHHANENIFYCPIAIMSALAMVYLGAKDSTRTQINKVVRFDKLPGFGDSIEAQCGTSVNVHSSLRDILNQITKPNDVYSFSLASRLYAEERYPILPEYLQCVKELYRGGLEPINFQTAADQARELINSWVESQTNGIIRNVLQPSSVDSQTAMVLVNAIVFKGLWEKAFKDEDTQAMPFRVTEQESKPVQMMYQIGLFRVASMASEKMKILELPFASGTMSMLVLLPDEVSGLEQLESIINFEKLTEWTSSNVMEERKIKVYLPRMKMEEKYNLTSVLMAMGITDVFSSSANLSGISSAESLKISQAVHAAHAEINEAGREVVGSAEAGVDAASVSEEFRADHPFLFCIKHIATNAVLFFGRCVSP
modifications: endotoxin-free
notes: endotoxin-free ovalbumin antigen, 50 μg/mouse, without particles

How the values were obtained:
[1] = tested on: IL-1β production by BMDCs from NLRP3−/− mice; assay: IL-1β ELISA on supernatants of NLRP3−/− BMDCs; assay type: cell-based, mouse; conditions: SC-PS 31.25 μg/ml to 1 mg/ml, lectin 1.56 to 50 μg/ml
Procedure: (§1) BMDCs were isolated and cultured as described in Example 2 at a density of 6.25×10^5 cells/ml in 96 well U-bottomed microplates. Cells were stimulated with a Toll-like receptor (TLR) ligand (LPS or Pam2CSK4) for 6 hours. Cells were then incubated with either medium, alum/SC-PS particles, alum/SC-PS particles conjugated with UEA-1, alum/SC-PS particles conjugated with UEA-1 mimetic or with UEA-1 alone for 24 hours. After incubation, supernatants from BMDCs were collected and cytokine concentrations measured by ELISA. Antibody pairs specific for each cytokine were used for immunoassaying. The following cytokines were measured by immunoassay: IL-1α, IL-1β.
(§2) Capture antibodies were obtained from BD Pharmingen (San Diego, Calif.), BioLegend (San Diego, Calif.) and R&D Systems, Inc. (Minneapolis, Minn.) and prepared according to the manufacturer's specifications (see Table 2) and a volume of 40 μl/well added to high-binding 96 well ELISA plates. Plates were then incubated for 2 hours at 37° C. or overnight at 4° C. After incubation, plates were washed in PBS-T (×3) and tapped dry. Plates were then blocked with the appropriate blocking solution (see Table 2) and incubated for 2 hours at 37° C. After incubation plates were washed in PBS-T (×3) and tapped dry. […] Plates were then stopped by the addition of 20 μl/well of 1M H2SO4 and read. […]

[2] = tested on: IL-1α production by BMDCs from NLRP3−/− mice; assay: IL-1α ELISA on supernatants of NLRP3−/− BMDCs; assay type: cell-based, mouse; conditions: SC-PS 31.25 μg/ml to 1 mg/ml, lectin 1.56 to 50 μg/ml, vs untargeted particles
Procedure: as §1, §2

[3] = tested on: IL-1α production by bone marrow-derived dendritic cells (BMDCs); assay: IL-1α ELISA on supernatants of BMDCs incubated with particles; assay type: cell-based, mouse; conditions: C57BL/6 BMDCs; LPS 1 ng/ml; serial dilutions SC-PS 31.25 μg/ml to 1 mg/ml with lectin 1.56 to 50 μg/ml; vs unconjugated SC-PS
Procedure: as §1
(§3) Capture antibodies were obtained from BD Pharmingen (San Diego, Calif.), BioLegend (San Diego, Calif.) and R&D Systems, Inc. (Minneapolis, Minn.) and prepared according to the manufacturer's specifications (see Table 2) and a volume of 40 μl/well added to high-binding 96 well ELISA plates. Plates were then incubated for 2 hours at 37° C. or overnight at 4° C. After incubation, plates were washed in PBS-T (×3) and tapped dry. Plates were then blocked with the appropriate blocking solution (see Table 2) and incubated for 2 hours at 37° C. After incubation plates were washed in PBS-T (×3) and tapped dry. Supernatants were transferred from cell culture plates to fresh 96 well plates. All supernatants were stored at −20° C. when not in use. Cell supernatants were applied to plates at the indicated dilutions (see Table 2). A blank triplicate was left on each plate containing the diluent as a blank. Standards were prepared at the starting concentration in the recommended diluent as specified by the manufacturer and transferred to a 96 well plate and serial dilutions (1:2) performed (see Table 2). All standards and samples were applied to plates at 40 μl/well total volume for incubation overnight at 4° C. After incubation plates were washed with PBS-T (×5) and tapped dry. […] Plates were then stopped by the addition of 20 μl/well of 1M H2SO4 and read. […]

[4] = tested on: IL-1β production by bone marrow-derived dendritic cells (BMDCs); assay: IL-1β ELISA on supernatants of BMDCs incubated with particles; assay type: cell-based, mouse; conditions: C57BL/6 BMDCs; LPS 1 ng/ml; serial dilutions SC-PS 31.25 μg/ml to 1 mg/ml with lectin 1.56 to 50 μg/ml; vs unconjugated SC-PS
Procedure: as §1, §3

BALB/c mice = assay: OVA-specific cytokine responses of peritoneal cells after i.p. immunization; assay type: in vivo, mouse; conditions: i.p. days 0 and 35, day 42; OVA 100 μg/ml restimulation; comparison with OVA-loaded PS particles
Procedure: Five groups of 6-8 week old female BALB/c mice (five mice per group) were i.p, immunized on day 0 with a total volume of 200 μl of vaccine. All ovalbumin (OVA) used was endotoxin-free. The groups were:
On day 34, blood was collected from the tail vein of each mouse and used to measure serum antibody titres. The following day, mice were i.p. immunized with an identical series of booster vaccinations as on day 0. Mice were sacrificed on day 42 by cervical dislocation, and cells were harvested.
Spleens were removed from the mice, and single cell suspensions prepared as described above. Peritoneal lavages were also performed. Cells were plated onto 96 well U-bottomed plates at cell densities of 2×10^6 cells/ml for splenocytes and 1×10^6 cells/ml for peritoneal lavage cells in 200 μl of complete RPMI 1640 medium per well.
Cells were stimulated in vitro with PBS, endotoxin-free OVA (50 μg/ml, 100 μg/ml, 500 μg/ml), phorbol myristate acetate (PMA, 25 ng/ml) combined with anti-CD3 (1 μg/ml) or anti-CD3 alone (0.5 μg/ml). Cells were incubated with antigen for 3 days. Supernatants were then removed and IL-5, IL-10, IL-17 and IFN-γ cytokine concentrations were determined by ELISA. […]

| Molecule | IL-1β production in the absence of NLRP3 [1] | IL-1α production in the absence of NLRP3 [2] | TLR-4 agonist-primed IL-1α production [3] | TLR-4 agonist-primed IL-1β production [4] | antigen-specific IL-5 by peritoneal cells (BALB/c mice) | antigen-specific IL-17 by peritoneal cells (BALB/c mice) |
| --- | --- | --- | --- | --- | --- | --- |
| PHA-E: SC-PS particles conjugated with biotinylated Phaseolus vulgaris erthyroagglutinin | not IL-β production | enhances IL-1α production | greatly increased IL-1α production and remained effective across four of the five serial dilutions | greatly increased IL-1β production and remained effective across four serial dilutions | – | – |
| PHA-L: SC-PS particles conjugated with biotinylated Phaseolus vulgaris leukoagglutinin | not IL-1β production | enhances IL-1α production | greatly increased IL-1α production and remained effective across four of the five serial dilutions | greatly increased IL-1β production and remained effective across four serial dilutions | – | – |
| B1 | – | – | – | – | stronger | stronger |
